pIC50: −log10 of the molar value.
Key:
Type in all cases: cell-based
[1] = molecular target: T1, human TLR7 (Homo sapiens, UniProt Q9NYK1); experiment: TLR7 inhibition reporter assay (HEK-Blue SEAP); conditions: HEK-Blue cells overexpressing human TLR7, stimulated with gardiquimod 7.5 µM, 22 h incubation
T1 construct: host or cells: HEK-Blue cells
T1 sequence (Q9NYK1 27-1049): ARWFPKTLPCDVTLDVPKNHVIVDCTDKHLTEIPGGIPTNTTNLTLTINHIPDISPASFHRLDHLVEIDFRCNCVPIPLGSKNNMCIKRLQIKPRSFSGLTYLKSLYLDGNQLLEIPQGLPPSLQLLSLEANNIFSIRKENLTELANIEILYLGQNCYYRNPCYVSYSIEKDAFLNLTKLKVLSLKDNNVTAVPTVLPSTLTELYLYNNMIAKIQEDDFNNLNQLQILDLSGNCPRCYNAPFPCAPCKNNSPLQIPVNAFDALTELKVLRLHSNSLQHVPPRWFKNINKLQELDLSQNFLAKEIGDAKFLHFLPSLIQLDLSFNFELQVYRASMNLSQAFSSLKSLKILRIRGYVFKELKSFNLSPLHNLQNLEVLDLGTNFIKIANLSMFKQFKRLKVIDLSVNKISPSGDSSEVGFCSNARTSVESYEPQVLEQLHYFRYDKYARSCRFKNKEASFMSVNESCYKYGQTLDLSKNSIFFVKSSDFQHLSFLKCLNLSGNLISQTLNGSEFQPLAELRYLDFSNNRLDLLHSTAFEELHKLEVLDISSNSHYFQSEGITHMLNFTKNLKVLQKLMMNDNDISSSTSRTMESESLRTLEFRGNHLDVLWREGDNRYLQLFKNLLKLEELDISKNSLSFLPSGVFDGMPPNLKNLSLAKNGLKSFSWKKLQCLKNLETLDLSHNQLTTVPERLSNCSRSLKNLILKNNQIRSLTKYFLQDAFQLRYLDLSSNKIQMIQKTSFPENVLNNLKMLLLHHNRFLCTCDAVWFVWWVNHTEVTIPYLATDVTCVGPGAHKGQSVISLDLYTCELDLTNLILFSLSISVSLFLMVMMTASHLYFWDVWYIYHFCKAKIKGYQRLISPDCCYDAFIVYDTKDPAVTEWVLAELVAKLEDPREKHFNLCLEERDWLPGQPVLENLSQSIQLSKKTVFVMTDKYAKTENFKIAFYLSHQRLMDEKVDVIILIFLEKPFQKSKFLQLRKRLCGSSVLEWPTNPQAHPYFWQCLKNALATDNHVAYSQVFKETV
Protocol: (§1) HEK-Blue™-cells (Invivogen) overexpressing human TLR7, TLR8 or TLR9 receptors were used for screening inhibitors of these receptors using an inducible SEAP (secreted embryonic alkaline phosphatase) reporter gene under the control of the IFN-β minimal promoter fused to five NF-κB and AP-1-binding sites. Briefly, cells are seeded into Greiner 384 well plates (15000 cells per well for TLR7, 20,000 for TLR8 and 25,000 for TLR9) and then treated with test compounds in DMSO to yield a final dose response concentration range of 0.05 nM - 50 µM. After a 30 minute compound pre-treatment at room temperature, the cells are then stimulated with a TLR7 ligand (gardiquimod at a final concentration of 7.5 µM), TLR8 ligand (R848 at a final concentration of 15.9 µM) or TLR9 ligand (ODN2006 at a final concentration of 5 nM) to activate NF-κB and AP-1 which induce the production of SEAP. After a 22 h incubation at 37°C, 5% CO2, SEAP levels are determined with the addition of HEK-Blue™ Detection reagent (Invivogen), a cell culture medium that allows for detection of SEAP, according to manufacturer's specifications. The percent inhibition is determined as the % reduction in the HEK-Blue signal present in wells treated with agonist plus DMSO alone compared to wells treated with a known inhibitor.

[2] = molecular target: T2, human TLR8 (Homo sapiens, UniProt Q9NR97); experiment: TLR8 inhibition reporter assay (HEK-Blue SEAP); conditions: HEK-Blue cells overexpressing human TLR8, stimulated with R848 15.9 µM, 22 h incubation
T2 construct: host or cells: HEK-Blue cells
T2 sequence (Q9NR97 27-1041): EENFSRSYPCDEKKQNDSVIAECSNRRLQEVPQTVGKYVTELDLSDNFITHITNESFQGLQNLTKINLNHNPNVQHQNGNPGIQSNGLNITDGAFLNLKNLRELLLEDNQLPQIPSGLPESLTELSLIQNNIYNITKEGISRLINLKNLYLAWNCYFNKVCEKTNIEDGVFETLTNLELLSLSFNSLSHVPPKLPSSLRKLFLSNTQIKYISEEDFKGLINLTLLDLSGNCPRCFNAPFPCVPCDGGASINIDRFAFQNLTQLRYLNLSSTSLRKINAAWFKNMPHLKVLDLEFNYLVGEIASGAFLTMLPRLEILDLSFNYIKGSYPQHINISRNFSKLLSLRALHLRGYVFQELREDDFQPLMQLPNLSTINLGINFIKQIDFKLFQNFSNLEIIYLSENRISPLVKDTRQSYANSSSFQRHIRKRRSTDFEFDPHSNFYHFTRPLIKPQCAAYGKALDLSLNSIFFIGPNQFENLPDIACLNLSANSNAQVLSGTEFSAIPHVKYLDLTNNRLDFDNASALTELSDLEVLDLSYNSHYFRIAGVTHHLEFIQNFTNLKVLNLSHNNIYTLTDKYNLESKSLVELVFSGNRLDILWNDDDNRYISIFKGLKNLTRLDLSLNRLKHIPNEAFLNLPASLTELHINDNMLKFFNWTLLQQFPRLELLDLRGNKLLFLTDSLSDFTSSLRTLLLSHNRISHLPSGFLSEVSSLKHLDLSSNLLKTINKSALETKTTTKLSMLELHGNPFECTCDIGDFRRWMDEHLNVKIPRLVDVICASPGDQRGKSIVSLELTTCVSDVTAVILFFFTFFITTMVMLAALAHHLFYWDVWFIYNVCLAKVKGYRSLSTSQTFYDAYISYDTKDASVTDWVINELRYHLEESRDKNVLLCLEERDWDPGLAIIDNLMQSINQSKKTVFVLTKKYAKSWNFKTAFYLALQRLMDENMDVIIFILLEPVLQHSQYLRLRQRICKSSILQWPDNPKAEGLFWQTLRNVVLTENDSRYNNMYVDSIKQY
Protocol: as §1

[3] = molecular target: T3, human TLR9 (Homo sapiens, UniProt Q9NR96); experiment: TLR9 inhibition reporter assay (HEK-Blue SEAP); conditions: HEK-Blue cells overexpressing human TLR9, stimulated with ODN2006 5 nM, 22 h incubation
T3 construct: host or cells: HEK-Blue cells
T3 sequence (Q9NR96 26-1032): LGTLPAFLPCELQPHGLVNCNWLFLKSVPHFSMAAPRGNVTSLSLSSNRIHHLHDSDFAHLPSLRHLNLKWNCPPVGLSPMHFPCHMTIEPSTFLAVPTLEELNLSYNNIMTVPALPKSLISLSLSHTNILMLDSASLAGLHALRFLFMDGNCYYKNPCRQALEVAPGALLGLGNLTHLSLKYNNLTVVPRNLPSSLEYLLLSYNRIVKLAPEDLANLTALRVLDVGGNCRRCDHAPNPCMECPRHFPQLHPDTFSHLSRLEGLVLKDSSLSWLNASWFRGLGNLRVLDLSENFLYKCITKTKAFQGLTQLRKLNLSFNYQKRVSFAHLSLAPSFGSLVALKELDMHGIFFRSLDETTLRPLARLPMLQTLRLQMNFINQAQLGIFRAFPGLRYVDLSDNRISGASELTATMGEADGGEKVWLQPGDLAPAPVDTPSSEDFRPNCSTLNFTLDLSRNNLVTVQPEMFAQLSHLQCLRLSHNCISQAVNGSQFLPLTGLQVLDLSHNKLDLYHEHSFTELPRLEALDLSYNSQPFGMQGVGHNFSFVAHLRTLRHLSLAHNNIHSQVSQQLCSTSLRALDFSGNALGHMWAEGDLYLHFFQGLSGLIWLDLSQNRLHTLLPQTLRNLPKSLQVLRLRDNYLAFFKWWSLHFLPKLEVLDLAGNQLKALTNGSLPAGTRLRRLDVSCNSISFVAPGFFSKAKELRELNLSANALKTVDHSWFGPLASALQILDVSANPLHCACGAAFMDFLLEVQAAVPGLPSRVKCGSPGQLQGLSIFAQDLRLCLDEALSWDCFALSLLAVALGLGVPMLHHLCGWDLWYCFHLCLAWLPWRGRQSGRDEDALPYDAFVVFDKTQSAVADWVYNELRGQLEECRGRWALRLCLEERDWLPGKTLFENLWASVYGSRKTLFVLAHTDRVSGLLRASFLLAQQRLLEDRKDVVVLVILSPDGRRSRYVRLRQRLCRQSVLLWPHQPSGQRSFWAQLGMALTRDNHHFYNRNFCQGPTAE
Protocol: as §1

Row | Compound | pIC50 [1] | pIC50 [2] | pIC50 [3]
1 | COc1cc(-c2cc3[nH]c4ccc(C5CCN(CC(C)(C)O)CC5)cc4c3c(C)c2C)cn2ncnc12 [Example 25] | 8.74 | 9.40 | 6.58
2 | Cn1cc(-c2ccc3c(c2)[nH]c2ccc(C4CCNCC4)cc23)cn1 [Example 8, 2-(1-methyl-1H-pyrazol-4-yl)-6-(piperidin-4-yl)-9H-carbazole] | 5.86 | 6.06 | 6.19
3 | Cc1cc(-c2cc(C)c3c(c2)[nH]c2ccc(C4CCNCC4)cc23)cc(C)n1 [Example 11] | 8.62 | 7.68 | 7.40
4 | COc1cc(-c2cc3[nH]c4ccc(C5CCCN(CC(C)(C)O)C5)cc4c3c(C)c2C)cn2ncnc12 (stereo not drawn) [Example 31] | 8.09 | 8.92 | 6.23
5 | CC(=O)Nc1ccc2c(c1)[nH]c1ccc(C3CCNCC3)cc12 [Example 7, N-(6-(piperidin-4-yl)-9H-carbazol-2-yl)acetamide] | < 5.51 | < 5.51 | 5.98
6 | COc1cc(-c2cc3[nH]c4ccc(C5CCCNC5)cc4c3c(C)c2C)cn2ncnc12 (stereo not drawn) [Example 26, 2-(8-methoxy-[1,2,4]triazolo[1,5-a]pyridin-6-yl)-3,4-dimethyl-6-(piperidin-3-yl)-9H-carbazole] | 8.89 | 8.80 | 6.57
7 | Cc1cc(-c2ccc3c(c2)[nH]c2ccc(C4CCNCC4)cc23)cn2ncnc12 [Example 3, 2-(8-methyl-[1,2,4]triazolo[1,5-a]pyridin-6-yl)-6-(piperidin-4-yl)-9H-carbazole] | 6.96 | 6.45 | 6.18
8 | COc1cc(-c2cc3[nH]c4ccc(C5CCN(CC(C)(C)O)CC5)cc4c3cc2C)cn2ncnc12 [Example 23] | 8.39 | 9.05 | 6.59
9 | COc1cc(-c2cc(C)c3c(c2)[nH]c2ccc(C4CCNCC4)cc23)cn2ncnc12 [Example 12] | 8.85 | 8.17 | 6.82
10 | Cc1cc2c(cc1-c1cc(C)c3ncnn3c1)[nH]c1ccc(C3CCNCC3)cc12 [Example 14, 3-methyl-2-(8-methyl-[1,2,4]triazolo[1,5-a]pyridin-6-yl)-6-(piperidin-4-yl)-9H-carbazole] | 8.92 | 8.85 | 6.50
11 | CN1CCC(c2ccc3c(c2)[nH]c2ccc(C4CCNCC4)cc23)CC1=O (stereo not drawn) [Example 6, 1-methyl-4-(6-(piperidin-4-yl)-9H-carbazol-2-yl)piperidin-2-one] | < 5.51 | < 5.51 | 5.98
12 | Cc1cc2c(cc1-c1cn(C)c(=O)c(C)c1C)[nH]c1ccc(C3CCNCC3)cc12 [Example 16] | 7.46 | 8.26 | 6.80
13 | COc1cc(-c2cc3[nH]c4ccc(C5CCCN(CCS(C)(=O)=O)C5)cc4c3c(C)c2C)cn2ncnc12 (stereo not drawn) [Example 32] | 8.03 | 8.70 | 6.10
14 | Cc1cc(-c2cc(C)c3c(c2)[nH]c2ccc(C4CCN(CC(C)(C)O)CC4)cc23)cc(C)n1 [Example 21] | 8.82 | 7.92 | 7.22
15 | COc1cc(-c2cc3[nH]c4ccc(C5CCCN(C(=O)CN(C)C)C5)cc4c3c(C)c2C)cn2ncnc12 (stereo not drawn) [Example 27, 2-(dimethylamino)-1-(3-(7-(8-methoxy-[1,2,4]triazolo[1,5-a]pyridin-6-yl)-5,6-dimethyl-9H-carbazol-3-yl)piperidin-1-yl)ethan-1-one] | 8.48 | 8.42 | 5.93
16 | Cc1c(-c2cc(C)c3c(c2)[nH]c2ccc(C4CCN(CC(C)(C)O)CC4)cc23)cn(C)c(=O)c1C [Example 18, 5-(6-(1-(2-Hydroxy-2-methylpropyl)piperidin-4-yl)-4-methyl-9H-carbazol-2-yl)-1,3,4-trimethylpyridin-2(1H)-one] | 8.49 | 9.05 | 6.19
17 | COc1cc(-c2cc3[nH]c4ccc(C5CCNCC5)cc4c3cc2C)cn2ncnc12 [Example 17] | 8.72 | 8.85 | 6.97
18 | COc1cc(-c2cc3[nH]c4ccc(C5CCNCC5)cc4c3c(C)c2C)cn2ncnc12 [Example 15, 2-(8-Methoxy-[1,2,4]triazolo[1,5-a]pyridin-6-yl)-3,4-dimethyl-6-(piperidin-4-yl)-9H-carbazole] | 9.10 | 9.10 | 7.02
